{"source": "patent US20160256452A1", "about": "(Develco Pharma Schweiz AG, priority 2015, published 2016)", "key": {"[1]": {"test_system": "loperamide-induced experimental constipation", "experiment": "Colon transit time (CTT), difference of WGT and OCT, loperamide-induced experimental constipation", "type": "in vivo, human", "settings": "for colon transit time after pre-treatment with loperamide: all 15 subjects", "experimental": "(§1) Pharmacokinetics of methylnaltrexone and its effects on loperamid-induced experimental constipation were evaluated in a randomized, controlled, five-period, cross-over study with 7 days wash-out between the study periods. […] The time of methylnaltrexone administration was defined to be time zero. For control of intestinal transit times in absence of loperamide and methylnaltrexone, 200 ml of pure apple juice and a methylnaltrexone placebo capsule were given at the respective times (Control). […] Oro-cecal transit time (OCT) was assessed using the sulfasalazine/sulfapyridine method. For that, 500 mg immediate-release sulfasalazine (Azulfidine®, Pharmacia, Germany) were swallowed with 200 ml table water 2 h after administration of the respective methylnaltrexone study medication to avoid competitive interactions during absorption. The time of first appearance of sulfapyridine in serum was defined to be the OCT (cut-off: 100 μg/ml serum). Whole gut transit time (WGT) was evaluated using a radio-opaque marker method. For that, Colon Transit' capsules (Medical Instruments Corporation GmbH, Herford, Germany) were swallowed 24, 12 and 1 h before time zero using the 200 ml apple juice for loperamide dosing. Each capsule contains 10 radio-opaque markers of identical shape (e.g. triangles). A Colon Transit™ batch consists of capsules with markers of different shape (e.g. triangles, circles, rings etc.). Our subjects were willing and compliant for sampling stool in single portions immediately after feeling urge without suppressing defecation using tightly closable containers. Then, the number of radio-opaque markers with identical shape was counted in the stool portions after X-ray imaging (Philips Optimus, Philips Healthcare, Hamburg, Germany) using the Agfa PACS Workstation Impact-Version 5.2 (Agfa-Healthcare, Cologne, Germany). From the time of administration of the 3×10 radio-opaque markers (3 Colon Transit™ capsules) and the time of their appearance in different stool portions could be reliably concluded on WGT as described below. Colon transit time (CTT) was derived from the difference of WGT and OCT.\nThe CTT was evaluated from the difference of WGT and OCT."}, "[2]": {"test_system": "loperamide-induced experimental constipation", "experiment": "Whole gut transit time (WGT), radio-opaque marker method, loperamide-induced experimental constipation", "type": "in vivo, human", "experimental": "(§2) All subjects were in good health as confirmed by medical histories, physical examination, routine clinical-chemical and hematologic screenings and 12-lead ECG. Three female subjects took hormonal contraceptives regularly and one subject took 300 mg ibuprofen to treat headache 4 days before the administration of study medication. Three subjects were smokers of less than 10 cigarettes per day. 14 subjects drank alcohol occasionally. All were negative in the pre-study screenings for alcohol, drugs, hepatitis-B-virus (HBV) and hepatitis-C-virus (HCV) and human immunodeficiency virus (HIV). Before administration of the study medication, female subjects were screened to be not pregnant and to apply a safe method of contraception. […] All participants provided informed written consent before inclusion into the study.\nas §1, with “Our subjects were willing and compliant for sampling stool in single portions immediately after feeling urge without suppressing defecation using tightly closable containers.” left out\nIntestinal transit times: Oro-cecal transit time (OCT) was defined as the time span between oral administration of sulfasalazine (500 mg immediate-release tablet) and the appearance of its metabolite sulfapyridine in serum (cut-off=100 μg/ml) which is generated in the cecum by bacterial azo-reduction. Whole-gut transit time (WGT) was assessed by counting the radio-opaque markers with different shapes (Colon Transit™) in the feces according to formula (1) : […]\nwith δ1-3 as derived by formula (2):\n[formula] • δt =mouth to stool transit time of markers type 1, 2, 3 • xi=number of markers type 1, 2, 3 counted at time ti • n=total number of stools"}, "[3]": {"test_system": "loperamide-induced experimental constipation", "experiment": "Oro-cecal transit time (OCT), sulfasalazine/sulfapyridine method, loperamide-induced experimental constipation", "type": "in vivo, human", "experimental": "as §2, with “The clinical study was performed in 15 German white subjects (11 males, 4 females, age 20-34 years, body mass index 20.3-27.0 kg/ m^2). All subjects” for “All subjects”, “the study. The study was approved by the Independent Ethics Committee of the University Medicine Greifswald and by the German Federal Institute for Drugs and Medical Devices (BfArM) and was registered by EudraCT (2009-014357-32) and ClinicalTrials.gov (NCT01596777).” for “the study.”\nas §1\nFor supervised pretreatment with loperamide and Colon Transit™ (mouth checking) and for providing stool samples, the subjects visited the study unit. […]"}, "[4]": {"settings": "cited from earlier work"}, "[5]": {"settings": "12 LOP-responders, Control versus LOP"}, "[6]": {"settings": "12 LOP-responders, Control versus LOP, range"}, "[7]": {"settings": "mean ± SD, 12 LOP-responders, loperamide 4 mg 24, 12, 1 h before and 12 h after placebo capsules"}}, "note": "Counter-ions that a name gives are not always drawn."}
{"smiles": "CN(C)C(=O)C(CCN1CCC(O)(c2ccc(Cl)cc2)CC1)(c1ccccc1)c1ccccc1", "note": "[LOP, loperamide hydrochloride]", "values": [{"measurement": "prolongation of the CTT (mean ± SD)", "setting": "[1]; [5]", "value": "34.8 ± 18.3", "unit": "h"}, {"measurement": "prolongation of the CTT (range)", "setting": "[1]; [6]", "value": "18.3 to 73.6", "unit": "h"}, {"measurement": "colon transit time after pre-treatment with loperamide", "setting": "[1]", "value": "66.0 ± 20.9", "unit": "h"}, {"measurement": "colon transit time after pre-treatment with loperamide", "setting": "[1]; range", "value": "33.9 to 110", "unit": "h"}, {"measurement": "CTT", "setting": "[1]; [7]", "value": "70.3 ± 19.4", "unit": "h"}, {"measurement": "WGT extended by (mean ± SD)", "setting": "[2]; [5]", "value": "37.8 ± 19.1", "unit": "h"}, {"measurement": "WGT extended by (range)", "setting": "[2]; [6]", "value": "20.6 to 74.1", "unit": "h"}, {"measurement": "WGT after pre-treatment with loperamide (mean ± SD)", "setting": "[2]; all 15 subjects", "value": "73.4 ± 19.9", "unit": "h"}, {"measurement": "WGT elevation versus Control", "setting": "[2]; all 15 subjects", "value": "about 1.8 fold"}, {"measurement": "WGT after pre-treatment with loperamide (range)", "setting": "[2]; all 15 subjects, range", "value": "45.9 to 114", "unit": "h"}, {"measurement": "WGT", "setting": "[2]; [7]", "value": "77.3 ± 19.6", "unit": "h"}, {"measurement": "prolongation of the OCT (mean ± SD)", "setting": "[3]; [5]", "value": "3.08 ± 3.30", "unit": "h"}, {"measurement": "prolongation of the OCT (range)", "setting": "[3]; [6]", "value": "0.50 to 10.5", "unit": "h"}, {"measurement": "OCT after pre-treatment with loperamide (mean ± SD)", "setting": "[3]; all 15 subjects", "value": "7.4 ± 3.7", "unit": "h"}, {"measurement": "OCT after pre-treatment with loperamide (range)", "setting": "[3]; all 15 subjects, range", "value": "4.0 to 14.0", "unit": "h"}, {"measurement": "OCT", "setting": "[3]; [7]", "value": "7.00 ± 3.55", "unit": "h"}]}
{"smiles": "C[N@+]1(CC2CC2)CC[C@]23c4c5ccc(O)c4O[C@H]2C(=O)CC[C@@]3(O)[C@H]1C5", "note": "[methylnaltrexone, N-methylnaltrexone bromide]", "values": [{"measurement": "time of peak concentrations", "setting": "[4]; following subcutaneous administration", "value": "approximately 0.5 hours"}, {"measurement": "crossing of the human blood-brain barrier", "setting": "[4]; in vivo", "value": "does not cross"}, {"measurement": "eliminated without being metabolised", "setting": "[4]; in vivo", "value": "85 % of the administered dose"}, {"measurement": "proportion that binds to plasma proteins", "setting": "[4]; in vivo", "value": "11-15%"}, {"measurement": "steady-state volume of distribution", "setting": "[4]; in vivo", "value": 1.1, "unit": "L/kg"}, {"measurement": "terminal half-life", "setting": "[4]; in vivo", "value": "about 8 hours"}, {"measurement": "Accumulation", "setting": "[4]; intravenous administration every 6 hours", "value": "has not been observed"}, {"measurement": "excreted in urine", "setting": "[4]; share of the dose", "value": "Approximately half of the dose"}]}
